Values after ≈ are worked out from the molar mass of the structure shown.

In general, IC50 refers to the midpoint of a concentration-inhibition curve. Low readings indicate inhibition by little substance, high ones a need for much substance.

Common to all, as to type: cell-based
Assay [1] relates to MEL-28 (monolayer culture of a human melanoma). The assay is described as follows: Cytotoxic activity screening, MEL-28 cells. As to conditions: Homo sapiens, SK-MEL-28, 72 h, three days of incubation, Crystal Violet, approximate IC50. The method, then: (§1) Cell Cultures. Cells were maintained in logarithmic phase of growth in Eagle's Minimum Essential Medium, with Earle's Balanced Salts, with 2.0 mM L-glutamine, with non-essential amino acids, without sodium bicarbonate (EMEM/neaa); supplemented with 10% Fetal Calf Serum (FCS), 10^−2 M sodium bicarbonate and 0.1 g/l penicillin-G+streptomycin sulfate.
(§2) A simple screening procedure has been carried out to determine and compare the antitumour activity of these compounds, using an adapted form of the method described by Bergeron et al (1984). The tumour cell line employed have been P-388 (suspension culture of a lymphoid neoplasm from DBA/2 mouse), A-549 (monolayer culture of a human lung carcinoma), HT-29 (monolayer culture of a human colon carcinoma) and MEL-28 (monolayer culture of a human melanoma).
A-549, HT-29 and MEL-28 were seeded into 16 mm wells at 2×10^4 cells per well in 1 ml aliquots of MEM 10FCS containing the indicated concentration of drug. A separate set of cultures without drug was seeded as control growth to ensure that cells remained in exponential phase of growth. All determinations were carried out in duplicate. After three days of incubation at 37° C., 10% CO2 in a 98% humid atmosphere, the wells were stained with 0.1% Crystal Violet. An approximately IC50 was determined by comparing the growth in wells with drug to the growth in wells control.

For assay [2], the system named is DU-145. The assay is described as follows: Cytotoxic activity screening, DU-145 cells. Conditions: Homo sapiens, DU-145, DU-145 cells. The method, then:
[The source words this procedure for another cell line and reports this cell line under the same test.] as §1, §2
Examples of biological activities of the compounds described in the present application are in Table IV (IC50 (ng/mL)) on the following pages.

Assay [3] deals with P-388 (suspension culture of a lymphoid neoplasm from DBA/2 mouse). Description: Cytotoxic activity screening, P-388 cells. Conditions: Mus musculus, P388, 72 h, three days of incubation, approximate IC50 vs control growth. The method, then: as §1, §2
P-388 cell were seeded into 16 mm wells at 1×10^4 cells per well in 1 ml aliquots of MEM 5FCS containing the indicated concentration of drug. A separate set of cultures without drug was seeded as control growth to ensure that cells remained in exponential phase of growth. All determinations were carried out in duplicate.

Assay [4] concerns A-549 (monolayer culture of a human lung carcinoma). Description: Cytotoxic activity screening, A-549 cells. Conditions: Homo sapiens, A549, 72 h, three days of incubation, Crystal Violet, approximate IC50. The method, then: as §1
(§3) A separate set of cultures without drug was seeded as control growth to ensure that cells remained in exponential phase of growth. All determinations were carried out in duplicate. After three days of incubation at 37° C., 10% CO2 in a 98% humid atmosphere, the wells were stained with 0.1% Crystal Violet. An approximately IC50 was determined by comparing the growth in wells with drug to the growth in wells control.

The subject of assay [5] is HT-29 (monolayer culture of a human colon carcinoma). The assay is described as follows: Cytotoxic activity screening, HT-29 cells. As to conditions: Homo sapiens, HT-29, 72 h, three days of incubation, Crystal Violet, approximate IC50. Here is the method: as §1, §3

On to `CCCCCCCC(=O)O[C@H]1CS[C@@H]2c3c(OC(C)=O)c(C)c4c(c3[C@H](COC1=O)N1C2[C@H]2c3c(cc(C)c(OC)c3O)C[C@@H]([C@@H]1O)N2C)OCO4` (stereo partly shown) [Compound 21e], for which the IC50 in assay [1], in assay [2], in assay [3], in assay [4] and in assay [5] was 1 ng/mL (≈ 1.35 nM) each time.
On to `COc1c(C)cc2c(c1O)[C@@H]1C3[C@@H]4SC[C@H](N5C(=O)c6ccccc6C5=O)C(=O)OC[C@@H](c5c6c(c(C)c(OC(C)=O)c54)OCO6)N3[C@@H](C#N)[C@H](C2)N1C` (stereo partly shown) [Compound 3j], for which the IC50 in assay [1], in assay [2], in assay [3], in assay [4] and in assay [5] was 5 ng/mL (≈ 6.64 nM) in each case.
For the compound `COc1c(C)cc2c(c1O)[C@@H]1C3[C@@H]4SC[C@H](NC(=O)C(F)(F)F)C(=O)OC[C@@H](c5c6c(c(C)c(OC(C)=O)c54)OCO6)N3[C@@H](O)[C@H](C2)N1C` (stereo in doubt) [Compound 4b], the IC50 in assay [1], in assay [2], in assay [3], in assay [4] and in assay [5] was 0.5 ng/mL (≈ 0.705 nM) in each case.
As to `COc1c(C)cc2c(c1O)[C@@H]1C3[C@@H]4SCC(NCc5ccccc5)C(=O)OC[C@@H](c5c6c(c(C)c(OC(C)=O)c54)OCO6)N3[C@@H](O)[C@H](C2)N1C` (stereo partly shown) [Compound 4n], the IC50 in assay [1], in assay [2], in assay [3], in assay [4] and in assay [5] was 0.5 ng/mL (≈ 0.71 nM) each time.
Turning to `COc1c(C)cc2c(c1O)[C@@H]1C3[C@@H]4SC[C@H](NC(=O)c5ccccc5)C(=O)OC[C@@H](c5c6c(c(C)c(OC(C)=O)c54)OCO6)N3[C@@H](O)[C@H](C2)N1C` (stereo partly shown) [Compound 4g], the IC50 in assay [1] amounted to 0.5 ng/mL (≈ 0.697 nM); in assay [2], 0.5 ng/mL (≈ 0.697 nM); in assay [3] it was 0.1 ng/mL (≈ 0.139 nM); in assay [4], 0.5 ng/mL (≈ 0.697 nM); in assay [5], 0.5 ng/mL (≈ 0.697 nM).
As for `COc1c(C)cc2c(c1O)[C@@H]1C3[C@@H]4SC[C@H](NC(=O)C(NC(=O)/C=C/c5ccccc5)C(C)C)C(=O)OC[C@@H](c5c6c(c(C)c(OC(C)=O)c54)OCO6)N3[C@@H](O)[C@H](C2)N1C` (stereo partly shown) [Compound 4r], the IC50 in assay [1], in assay [2], in assay [3], in assay [4] and in assay [5] was 0.5 ng/mL (≈ 0.593 nM) throughout.
Take `COc1c(C)cc2c(c1O)[C@@H]1C3[C@@H]4SCC(NCc5ccccc5)C(=O)OC[C@@H](c5c6c(c(C)c(OC(C)=O)c54)OCO6)N3[C@@H](C#N)[C@H](C2)N1C` (stereo partly shown) [Compound 3n]: the IC50 in assay [1], in assay [2], in assay [3], in assay [4] and in assay [5] was 0.5 ng/mL (≈ 0.701 nM) each time.
For the compound `COc1c(C)cc2c(c1O)[C@@H]1C3[C@@H]4SC[C@H](NC(=O)C(NC(=O)C(C)NC(C)=O)C(C)C)C(=O)OC[C@@H](c5c6c(c(C)c(OC(C)=O)c54)OCO6)N3[C@@H](O)[C@H](C2)N1C` (stereo partly shown) [Compound 4t], the IC50 stood at 10 ng/mL (≈ 12.1 nM) in assay [1]; 10 ng/mL (≈ 12.1 nM) in assay [2]; 100 ng/mL (≈ 121 nM) in assay [3]; 100 ng/mL (≈ 121 nM) in assay [4]; 10 ng/mL (≈ 12.1 nM) in assay [5].
For `CCCC(=O)N[C@H]1CS[C@@H]2c3c(OC(C)=O)c(C)c4c(c3[C@H](COC1=O)N1C2[C@H]2c3c(cc(C)c(OC)c3O)C[C@@H]([C@@H]1C#N)N2C)OCO4` (stereo partly shown) [Compound 3c], the IC50 in assay [1], in assay [2], in assay [3], in assay [4] and in assay [5] was 0.1 ng/mL (≈ 0.144 nM) in each case.
With `COc1c(C)cc2c(c1O)[C@@H]1C3[C@@H]4SC[C@H](NC(=O)C(C)NC(=O)/C=C/c5ccccc5)C(=O)OC[C@@H](c5c6c(c(C)c(OC(C)=O)c54)OCO6)N3[C@@H](C#N)[C@H](C2)N1C` (stereo partly shown) [Compound 3x], the IC50 in assay [1], in assay [2], in assay [3], in assay [4] and in assay [5] was 0.1 ng/mL (≈ 0.121 nM) each time.
Consider `COc1c(C)cc2c(c1O)[C@@H]1C3[C@@H]4SC[C@H](OC(=O)/C=C/c5ccccc5)C(=O)OC[C@@H](c5c6c(c(C)c(OC(C)=O)c54)OCO6)N3[C@@H](O)[C@H](C2)N1C` (stereo partly shown) [Compound 21h], for which the IC50 in assay [1], in assay [2], in assay [3], in assay [4] and in assay [5] was 1 ng/mL (≈ 1.34 nM) each time.
As for `COc1c(C)cc2c(c1O)[C@@H]1C3[C@@H]4SC[C@H](NC(=O)C(NC(C)=O)C(C)C)C(=O)OC[C@@H](c5c6c(c(C)c(OC(C)=O)c54)OCO6)N3[C@@H](C#N)[C@H](C2)N1C` (stereo partly shown) [Compound 3q], the IC50 in assay [1], in assay [2], in assay [3], in assay [4] and in assay [5] was 1 ng/mL (≈ 1.31 nM) each time.
On to `COc1c(C)cc2c(c1O)[C@@H]1C3[C@@H]4SC[C@H](OC(=O)/C=C/c5ccccc5)C(=O)OC[C@@H](c5c6c(c(C)c(OC(C)=O)c54)OCO6)N3[C@@H](C#N)[C@H](C2)N1C` (stereo partly shown) [Compound 17h], for which the IC50 in assay [1], in assay [2], in assay [3], in assay [4] and in assay [5] was 0.1 ng/mL (≈ 0.133 nM) each time.
As for `COc1c(C)cc2c(c1O)[C@@H]1C3[C@@H]4SC[C@H](NC(=O)C(NC(=O)C(C)NC(C)=O)C(C)C)C(=O)OC[C@@H](c5c6c(c(C)c(OC(C)=O)c54)OCO6)N3[C@@H](C#N)[C@H](C2)N1C` (stereo partly shown) [Compound 3t], the IC50 in assay [1], in assay [2], in assay [3], in assay [4] and in assay [5] was 10 ng/mL (≈ 12 nM) throughout.
For the compound `COc1c(C)cc2c(c1O)[C@@H]1C3[C@@H]4SC[C@H](NC(=O)CCCCC5SCC6NC(=O)NC65)C(=O)OC[C@@H](c5c6c(c(C)c(OC(C)=O)c54)OCO6)N3[C@@H](O)[C@H](C2)N1C` (stereo partly shown) [Compound 4k], the IC50 in assay [1], in assay [2], in assay [3], in assay [4] and in assay [5] was 10 ng/mL (≈ 11.9 nM) each time.
As for `COc1c(C)cc2c(c1O)[C@@H]1C3[C@@H]4SC[C@H](NC(=O)c5ccccc5)C(=O)OC[C@@H](c5c6c(c(C)c(OC(C)=O)c54)OCO6)N3[C@@H](C#N)[C@H](C2)N1C` (stereo partly shown) [Compound 3g], the IC50 in assay [1], in assay [2], in assay [3], in assay [4] and in assay [5] was 0.1 ng/mL (≈ 0.138 nM) throughout.
Consider `COc1c(C)cc2c(c1O)[C@@H]1C3[C@@H]4SC[C@H](N(C)C)C(=O)OC[C@@H](c5c6c(c(C)c(OC(C)=O)c54)OCO6)N3[C@@H](C#N)[C@H](C2)N1C` (stereo partly shown) [Compound 3m], for which the IC50 in assay [1], in assay [2], in assay [3], in assay [4] and in assay [5] was 10 ng/mL (≈ 15.4 nM) each time.
Turning to `COc1c(C)cc2c(c1O)[C@@H]1C3[C@@H]4SC[C@H](NC(=O)C(NC(C)=O)C(C)C)C(=O)OC[C@@H](c5c6c(c(C)c(OC(C)=O)c54)OCO6)N3[C@@H](O)[C@H](C2)N1C` (stereo partly shown) [Compound 4q], the IC50 in assay [1], in assay [2], in assay [3], in assay [4] and in assay [5] was 1 ng/mL (≈ 1.32 nM) each time.
As to `COc1c(C)cc2c(c1O)[C@@H]1C3[C@@H]4SC[C@H](NC(=O)C(C)N)C(=O)OC[C@@H](c5c6c(c(C)c(OC(C)=O)c54)OCO6)N3[C@@H](O)[C@H](C2)N1C` (stereo partly shown) [Compound 4v], the IC50 in assay [1], in assay [2], in assay [3], in assay [4] and in assay [5] was 1 ng/mL (≈ 1.46 nM) throughout.
Regarding `COc1c(C)cc2c(c1O)[C@@H]1C3[C@@H]4SC[C@H](NC(=O)C(NC(=O)/C=C/c5ccccc5)C(C)C)C(=O)OC[C@@H](c5c6c(c(C)c(OC(C)=O)c54)OCO6)N3[C@@H](C#N)[C@H](C2)N1C` (stereo partly shown) [Compound 3r], the IC50 in assay [1], in assay [2], in assay [3], in assay [4] and in assay [5] was 1 ng/mL (≈ 1.17 nM) in each case.

The values are drawn from patent US7919493B2, “Anititumoral ecteinascidin derivatives” (Pharma Mar, S.A., priority 2001, dated 2011).
